SMILES strings stand for the structures. pKi: −log10 of the molar value. A value given as a limit tells only on which side of the number the result lay.

One data set concerns the target T1, Histone deacetylase 8 (Homo sapiens, UniProt Q9BY41).
T1 sequence (Q9BY41 whole entry): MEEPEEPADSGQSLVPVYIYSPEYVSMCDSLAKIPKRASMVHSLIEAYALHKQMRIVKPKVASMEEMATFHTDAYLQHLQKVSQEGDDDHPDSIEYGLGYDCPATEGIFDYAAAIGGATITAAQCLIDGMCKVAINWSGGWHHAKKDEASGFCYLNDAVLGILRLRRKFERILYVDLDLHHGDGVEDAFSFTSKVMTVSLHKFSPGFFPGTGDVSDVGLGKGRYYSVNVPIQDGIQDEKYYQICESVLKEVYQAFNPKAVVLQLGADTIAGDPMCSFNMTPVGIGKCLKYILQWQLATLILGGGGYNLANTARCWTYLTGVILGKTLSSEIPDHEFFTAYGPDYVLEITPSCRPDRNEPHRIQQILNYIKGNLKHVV
Briefly: Inhibition of human recombinant HDAC8 using fluorogenic HDAC substrate after 15 mins by fluorimetrc method.

The nature of data set [1]: Clearance in human hepatocytes assessed per million cells at 1 uM after 5 to 90 mins by LC-MS/MS analysis. It counts as ADME, cell-based, Hepatocyte. Conditions: read-out: CLH.
The target in another data set is Histone deacetylase 4 (Homo sapiens, UniProt P56524). Description: Inhibition of human recombinant HDAC4 using fluorogenic HDAC substrate class 2a after 30 mins by fluorimetrc method.
Sequence of Histone deacetylase 4 (P56524 whole entry): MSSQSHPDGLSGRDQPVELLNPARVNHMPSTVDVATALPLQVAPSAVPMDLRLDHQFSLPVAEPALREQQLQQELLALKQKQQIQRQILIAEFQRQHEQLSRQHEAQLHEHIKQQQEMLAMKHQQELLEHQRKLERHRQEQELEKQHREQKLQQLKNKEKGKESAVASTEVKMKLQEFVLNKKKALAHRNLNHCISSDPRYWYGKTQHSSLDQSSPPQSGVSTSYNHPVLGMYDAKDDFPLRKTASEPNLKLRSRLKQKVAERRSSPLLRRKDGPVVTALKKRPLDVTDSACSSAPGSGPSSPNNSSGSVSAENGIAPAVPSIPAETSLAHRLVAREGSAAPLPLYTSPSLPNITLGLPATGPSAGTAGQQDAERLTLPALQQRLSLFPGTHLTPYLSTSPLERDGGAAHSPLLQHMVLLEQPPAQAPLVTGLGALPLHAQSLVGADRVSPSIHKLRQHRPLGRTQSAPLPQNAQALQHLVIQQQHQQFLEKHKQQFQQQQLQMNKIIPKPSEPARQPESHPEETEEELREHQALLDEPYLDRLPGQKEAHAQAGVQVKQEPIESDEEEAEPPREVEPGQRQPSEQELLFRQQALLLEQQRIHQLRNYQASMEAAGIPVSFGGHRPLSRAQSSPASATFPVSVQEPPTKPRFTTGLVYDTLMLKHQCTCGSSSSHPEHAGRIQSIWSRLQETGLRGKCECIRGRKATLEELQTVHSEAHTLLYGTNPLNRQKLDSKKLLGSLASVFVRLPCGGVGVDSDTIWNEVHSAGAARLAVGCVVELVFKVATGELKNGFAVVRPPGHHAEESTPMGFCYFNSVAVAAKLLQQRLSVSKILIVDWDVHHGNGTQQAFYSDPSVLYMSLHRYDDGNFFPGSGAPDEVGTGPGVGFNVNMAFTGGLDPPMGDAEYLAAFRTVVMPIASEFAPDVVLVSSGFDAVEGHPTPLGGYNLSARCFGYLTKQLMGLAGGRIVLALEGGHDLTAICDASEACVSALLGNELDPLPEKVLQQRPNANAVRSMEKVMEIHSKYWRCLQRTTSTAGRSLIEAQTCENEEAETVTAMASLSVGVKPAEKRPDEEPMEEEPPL
A further data set concerns the target Histone deacetylase 1 (Homo sapiens, UniProt Q13547). Briefly: Inhibition of human recombinant HDAC1 using fluorogenic HDAC substrate after 15 mins by fluorimetrc method.
The target in data set [2] is T2, NAD-dependent protein deacetylase sirtuin-2 (Homo sapiens, UniProt Q8IXJ6).
T2 sequence (Q8IXJ6 whole entry): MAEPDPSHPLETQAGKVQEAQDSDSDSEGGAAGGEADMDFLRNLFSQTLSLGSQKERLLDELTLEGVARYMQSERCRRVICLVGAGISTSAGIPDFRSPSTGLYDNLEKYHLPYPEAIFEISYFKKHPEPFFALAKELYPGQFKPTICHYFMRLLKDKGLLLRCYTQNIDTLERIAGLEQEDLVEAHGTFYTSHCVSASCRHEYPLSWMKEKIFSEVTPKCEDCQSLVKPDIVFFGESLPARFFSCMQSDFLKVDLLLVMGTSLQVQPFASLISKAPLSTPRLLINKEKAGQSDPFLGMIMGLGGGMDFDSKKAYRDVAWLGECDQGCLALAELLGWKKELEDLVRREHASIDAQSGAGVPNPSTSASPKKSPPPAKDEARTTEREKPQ
Description: Inhibition of human recombinant SIRT2 using fluoro-lysine sirtuin 2 deacetylase substrate after 60 mins by fluorimetrc method.

Data set [3] addresses T3, Protein deacetylase HDAC6 (Homo sapiens, UniProt Q9UBN7).
T3 sequence (Q9UBN7 whole entry): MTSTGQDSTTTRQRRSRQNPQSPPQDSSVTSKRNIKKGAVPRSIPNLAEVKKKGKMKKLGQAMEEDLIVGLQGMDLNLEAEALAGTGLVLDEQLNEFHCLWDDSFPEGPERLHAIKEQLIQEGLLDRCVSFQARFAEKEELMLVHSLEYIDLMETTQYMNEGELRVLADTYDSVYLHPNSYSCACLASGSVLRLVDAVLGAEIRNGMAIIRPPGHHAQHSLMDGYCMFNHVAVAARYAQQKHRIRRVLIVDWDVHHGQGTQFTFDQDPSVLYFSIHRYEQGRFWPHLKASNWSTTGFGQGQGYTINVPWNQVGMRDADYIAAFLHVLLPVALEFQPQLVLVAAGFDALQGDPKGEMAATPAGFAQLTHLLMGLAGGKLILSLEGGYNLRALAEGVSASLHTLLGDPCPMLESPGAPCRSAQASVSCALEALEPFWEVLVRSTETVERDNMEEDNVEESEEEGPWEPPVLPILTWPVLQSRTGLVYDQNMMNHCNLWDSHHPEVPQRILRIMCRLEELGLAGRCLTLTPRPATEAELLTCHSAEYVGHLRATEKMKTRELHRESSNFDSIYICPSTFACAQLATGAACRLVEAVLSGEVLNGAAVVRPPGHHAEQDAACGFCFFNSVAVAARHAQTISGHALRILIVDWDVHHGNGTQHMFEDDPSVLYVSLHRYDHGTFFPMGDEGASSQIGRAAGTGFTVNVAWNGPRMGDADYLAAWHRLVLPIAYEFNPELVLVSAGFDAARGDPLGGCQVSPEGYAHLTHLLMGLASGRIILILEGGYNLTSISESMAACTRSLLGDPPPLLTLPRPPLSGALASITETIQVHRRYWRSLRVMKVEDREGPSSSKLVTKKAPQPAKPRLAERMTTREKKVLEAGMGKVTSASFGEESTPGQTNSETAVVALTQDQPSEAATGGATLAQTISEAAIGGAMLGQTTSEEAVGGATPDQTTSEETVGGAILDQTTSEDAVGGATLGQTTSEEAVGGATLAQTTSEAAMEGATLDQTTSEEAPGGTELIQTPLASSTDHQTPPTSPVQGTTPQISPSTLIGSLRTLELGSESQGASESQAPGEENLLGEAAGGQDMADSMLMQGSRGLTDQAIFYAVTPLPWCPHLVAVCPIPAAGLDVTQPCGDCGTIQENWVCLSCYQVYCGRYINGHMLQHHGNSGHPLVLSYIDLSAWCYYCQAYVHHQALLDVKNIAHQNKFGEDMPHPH
Description: Inhibition of human recombinant HDAC6 using fluorogenic HDAC substrate after 30 mins by fluorimetrc method.

The target of data set [4] is T4, Polyamine deacetylase HDAC10 (Homo sapiens, UniProt Q969S8).
T4 sequence (Q969S8 whole entry): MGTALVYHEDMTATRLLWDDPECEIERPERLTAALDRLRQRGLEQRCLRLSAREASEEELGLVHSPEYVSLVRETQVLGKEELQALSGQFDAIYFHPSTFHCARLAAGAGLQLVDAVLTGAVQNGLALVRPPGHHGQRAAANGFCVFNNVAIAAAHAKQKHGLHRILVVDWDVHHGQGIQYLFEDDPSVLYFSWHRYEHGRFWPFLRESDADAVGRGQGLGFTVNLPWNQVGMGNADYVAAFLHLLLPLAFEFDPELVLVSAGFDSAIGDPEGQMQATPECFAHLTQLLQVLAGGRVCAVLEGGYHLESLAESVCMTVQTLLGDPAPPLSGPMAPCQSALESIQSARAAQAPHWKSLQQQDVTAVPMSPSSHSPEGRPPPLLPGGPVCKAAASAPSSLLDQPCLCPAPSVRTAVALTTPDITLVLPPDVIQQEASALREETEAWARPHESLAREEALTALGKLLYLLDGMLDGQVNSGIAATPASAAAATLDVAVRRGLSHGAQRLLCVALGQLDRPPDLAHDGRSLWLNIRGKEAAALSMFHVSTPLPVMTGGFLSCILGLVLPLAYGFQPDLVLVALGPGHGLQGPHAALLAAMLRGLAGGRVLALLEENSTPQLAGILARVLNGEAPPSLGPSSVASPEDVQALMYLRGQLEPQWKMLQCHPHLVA
Description: Inhibition of human recombinant HDAC10 using fluorogenic HDAC substrate after 45 mins by fluorimetrc method.

The target of a further data set is Histone deacetylase 5 (Homo sapiens, UniProt Q9UQL6). Description: Inhibition of human recombinant HDAC5 using fluorogenic HDAC substrate class 2a after 30 mins by fluorimetrc method.
Sequence of Histone deacetylase 5 (Q9UQL6 whole entry): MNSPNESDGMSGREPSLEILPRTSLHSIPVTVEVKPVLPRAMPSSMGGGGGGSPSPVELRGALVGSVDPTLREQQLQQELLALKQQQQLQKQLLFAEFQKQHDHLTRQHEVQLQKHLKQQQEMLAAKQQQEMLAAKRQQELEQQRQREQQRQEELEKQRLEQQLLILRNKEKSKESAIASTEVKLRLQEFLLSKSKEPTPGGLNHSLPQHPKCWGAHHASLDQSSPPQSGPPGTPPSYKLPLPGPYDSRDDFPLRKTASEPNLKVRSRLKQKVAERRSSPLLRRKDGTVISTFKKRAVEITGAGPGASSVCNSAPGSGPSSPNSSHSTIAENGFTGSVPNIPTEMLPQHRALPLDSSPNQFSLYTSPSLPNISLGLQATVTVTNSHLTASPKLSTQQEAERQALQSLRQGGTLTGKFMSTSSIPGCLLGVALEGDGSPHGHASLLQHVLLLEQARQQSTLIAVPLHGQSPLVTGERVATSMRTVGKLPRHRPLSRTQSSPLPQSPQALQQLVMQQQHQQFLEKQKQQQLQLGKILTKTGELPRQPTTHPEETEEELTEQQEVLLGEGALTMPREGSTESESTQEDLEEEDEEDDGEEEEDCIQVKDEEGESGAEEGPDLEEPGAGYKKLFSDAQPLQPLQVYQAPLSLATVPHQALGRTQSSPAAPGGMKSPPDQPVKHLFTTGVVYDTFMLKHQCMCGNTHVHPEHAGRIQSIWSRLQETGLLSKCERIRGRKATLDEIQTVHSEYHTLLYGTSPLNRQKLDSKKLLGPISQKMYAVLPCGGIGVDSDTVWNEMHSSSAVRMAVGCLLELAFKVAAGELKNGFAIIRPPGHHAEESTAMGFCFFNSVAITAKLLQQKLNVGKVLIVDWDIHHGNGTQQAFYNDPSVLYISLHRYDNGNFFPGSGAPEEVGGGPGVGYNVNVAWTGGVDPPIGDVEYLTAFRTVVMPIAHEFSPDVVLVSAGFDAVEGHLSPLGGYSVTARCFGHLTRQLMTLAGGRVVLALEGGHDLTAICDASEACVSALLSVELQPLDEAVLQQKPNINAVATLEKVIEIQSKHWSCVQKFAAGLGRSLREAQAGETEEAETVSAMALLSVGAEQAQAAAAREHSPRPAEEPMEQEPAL

Sequence of Histone deacetylase 1 (Q13547 whole entry): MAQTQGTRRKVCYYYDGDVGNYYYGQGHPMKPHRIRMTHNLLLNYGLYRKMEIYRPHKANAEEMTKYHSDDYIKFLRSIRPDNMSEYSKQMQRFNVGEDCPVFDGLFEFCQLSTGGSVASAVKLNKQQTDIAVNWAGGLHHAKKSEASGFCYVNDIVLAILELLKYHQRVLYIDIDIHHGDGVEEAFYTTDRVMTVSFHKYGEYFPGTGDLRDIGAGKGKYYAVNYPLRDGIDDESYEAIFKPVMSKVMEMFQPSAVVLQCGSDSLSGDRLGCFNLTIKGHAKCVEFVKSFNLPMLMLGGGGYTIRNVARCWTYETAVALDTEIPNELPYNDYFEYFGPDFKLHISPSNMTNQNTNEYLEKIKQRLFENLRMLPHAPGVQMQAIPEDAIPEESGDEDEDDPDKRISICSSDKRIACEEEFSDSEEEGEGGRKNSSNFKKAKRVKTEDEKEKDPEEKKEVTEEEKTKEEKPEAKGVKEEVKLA

Usually pKi stands for the Ki on a negative log10 scale, so that one unit is a factor of ten. For the molecule `CC(Nc1c(NCCCCCC(=O)NO)c(=O)c1=O)C12CC3CC(CC(C3)C1)C2` (centres undefined), the pKi is 6.49 on Histone deacetylase 8; < 5.00 on Histone deacetylase 4; 7.32 on Histone deacetylase 1; < 5.00 in data set [2]; 6.89 in data set [3]; 7.30 in data set [4]. Also, the pKi on Histone deacetylase 5 was 5.38. Moreover, the hepatocyte CLint at 1 µM in data set [1] is < 5 µL/min/1e6 cells.

Turning to `COc1ccc(Nc2c(NCCCCCC(=O)NO)c(=O)c2=O)cc1`, the pKi at Histone deacetylase 8 is 7.00; on Histone deacetylase 4, < 5.00; at Histone deacetylase 1 it was 9.47; in data set [2], < 5.00; in data set [3] it was 7.64; in data set [4], 8.92. Also, the pKi on Histone deacetylase 5 was 6.00. In addition, the hepatocyte CLint at 1 µM in data set [1] is < 4.7 µL/min/1e6 cells.

As to `CC(C)(CCCCC(=O)NO)Nc1c(Nc2ccc(C(F)(F)F)cc2)c(=O)c1=O`, the negative-log Ki (pKi) on Histone deacetylase 8 is 6.96; on Histone deacetylase 4, 5.47; on Histone deacetylase 1 it was 9.00; in data set [2], < 5.00; in data set [3], 6.89; in data set [4], 8.52. Also, the pKi at Histone deacetylase 5 is 6.44. Further, the hepatocyte CLint at 1 µM in data set [1] worked out at 29 µL/min/1e6 cells.

Source of the values: ChEMBL document CHEMBL4229543, “Squaramides as novel class I and IIB histone deacetylase inhibitors for topical treatment of cutaneous t-cell lymphoma” (Bioorg Med Chem Lett, 2018).
